Measurements reported in the CheMixHub viscosity set.
“And” between values parts separate entries of the source, which are not always exact repeats. Equal entries are not always repeated.

Test: xn = mol fraction of the nth substance listed

C[C@H](N)C(=O)O + O
Details	viscosity
298 K, 101 kPa, x1 = 0.0004	0.887 mPa·s
298 K, 101 kPa, x1 = 0.0007	0.8925 mPa·s
298 K, 101 kPa, x1 = 0.001	0.8956 mPa·s
298 K, 101 kPa, x1 = 0.0018	0.9013 mPa·s
298.15 K, 100 kPa, x1 = 0.0004	0.8955 mPa·s
298.15 K, 100 kPa, x1 = 0.0007	0.8979 mPa·s
298.15 K, 100 kPa, x1 = 0.001	0.9003 mPa·s and 0.9029 mPa·s
298.15 K, 101 kPa, x1 = 0.000169	0.9489 mPa·s and 0.9489 mPa·s
298.15 K, 101 kPa, x1 = 0.00045	0.8958 mPa·s
298.15 K, 101 kPa, x1 = 0.0009	0.9013 mPa·s
298.15 K, 101 kPa, x1 = 0.00135	0.9069 mPa·s
298.15 K, 101 kPa, x1 = 0.00178	0.9677 mPa·s and 0.9677 mPa·s
298.15 K, 101 kPa, x1 = 0.0018	0.9126 mPa·s
298.15 K, 101 kPa, x1 = 0.002695	0.9242 mPa·s
298.15 K, 101 kPa, x1 = 0.003596	0.9759 mPa·s and 0.9759 mPa·s
298.15 K, 101 kPa, x1 = 0.005338	0.9871 mPa·s and 0.9871 mPa·s
298.15 K, 101 kPa, x1 = 0.01087	1.039 mPa·s and 1.039 mPa·s
298.15 K, 101 kPa, x1 = 0.0124	1.045 mPa·s and 1.045 mPa·s
298.15 K, 101 kPa, x1 = 0.01417	1.054 mPa·s and 1.054 mPa·s
303.15 K, 101 kPa, x1 = 0.00045	0.8023 mPa·s
303.15 K, 101 kPa, x1 = 0.0009	0.8076 mPa·s
303.15 K, 101 kPa, x1 = 0.00135	0.8128 mPa·s
303.15 K, 101 kPa, x1 = 0.0018	0.8182 mPa·s
303.15 K, 101 kPa, x1 = 0.001802	0.8176 mPa·s
303.15 K, 101 kPa, x1 = 0.002245	0.8235 mPa·s
303.15 K, 101 kPa, x1 = 0.002695	0.829 mPa·s
303.15 K, 101 kPa, x1 = 0.01069	0.9202 mPa·s
303.15 K, 101 kPa, x1 = 0.01245	0.9412 mPa·s
308.15 K, 101 kPa, x1 = 0.000169	0.7568 mPa·s and 0.7568 mPa·s
308.15 K, 101 kPa, x1 = 0.00045	0.7238 mPa·s
308.15 K, 101 kPa, x1 = 0.000844	0.7678 mPa·s and 0.7678 mPa·s
308.15 K, 101 kPa, x1 = 0.0009	0.7288 mPa·s
308.15 K, 101 kPa, x1 = 0.00135	0.7338 mPa·s
308.15 K, 101 kPa, x1 = 0.00178	0.7755 mPa·s and 0.7755 mPa·s
308.15 K, 101 kPa, x1 = 0.002245	0.7439 mPa·s
308.15 K, 101 kPa, x1 = 0.002695	0.749 mPa·s
308.15 K, 101 kPa, x1 = 0.003596	0.799 mPa·s and 0.799 mPa·s
308.15 K, 101 kPa, x1 = 0.005338	0.8044 mPa·s and 0.8044 mPa·s
308.15 K, 101 kPa, x1 = 0.007149	0.8133 mPa·s and 0.8133 mPa·s
308.15 K, 101 kPa, x1 = 0.008823	0.8201 mPa·s and 0.8201 mPa·s
308.15 K, 101 kPa, x1 = 0.01087	0.8366 mPa·s and 0.8366 mPa·s
308.15 K, 101 kPa, x1 = 0.0124	0.8431 mPa·s and 0.8431 mPa·s
308.15 K, 101 kPa, x1 = 0.01417	0.8612 mPa·s and 0.8612 mPa·s
313.15 K, 101 kPa, x1 = 0.00045	0.6571 mPa·s
313.15 K, 101 kPa, x1 = 0.0009	0.6618 mPa·s
313.15 K, 101 kPa, x1 = 0.00135	0.6666 mPa·s
313.15 K, 101 kPa, x1 = 0.0018	0.6714 mPa·s
313.15 K, 101 kPa, x1 = 0.002245	0.6761 mPa·s
313.15 K, 101 kPa, x1 = 0.002695	0.6809 mPa·s
313.15 K, 101 kPa, x1 = 0.005374	0.6994 mPa·s
313.15 K, 101 kPa, x1 = 0.008931	0.7316 mPa·s
313.15 K, 101 kPa, x1 = 0.01245	0.7659 mPa·s
318.15 K, 101 kPa, x1 = 0.000169	0.6345 mPa·s
318.15 K, 101 kPa, x1 = 0.00045	0.6014 mPa·s
318.15 K, 101 kPa, x1 = 0.000844	0.6454 mPa·s and 0.6454 mPa·s
318.15 K, 101 kPa, x1 = 0.0009	0.6059 mPa·s
318.15 K, 101 kPa, x1 = 0.00135	0.6104 mPa·s
318.15 K, 101 kPa, x1 = 0.00178	0.6589 mPa·s and 0.6589 mPa·s
318.15 K, 101 kPa, x1 = 0.0018	0.6149 mPa·s
318.15 K, 101 kPa, x1 = 0.002245	0.6195 mPa·s
318.15 K, 101 kPa, x1 = 0.002695	0.624 mPa·s
318.15 K, 101 kPa, x1 = 0.003596	0.6733 mPa·s and 0.6733 mPa·s
318.15 K, 101 kPa, x1 = 0.005338	0.6747 mPa·s and 0.6747 mPa·s
318.15 K, 101 kPa, x1 = 0.007149	0.6774 mPa·s and 0.6774 mPa·s
318.15 K, 101 kPa, x1 = 0.008823	0.699 mPa·s and 0.699 mPa·s
318.15 K, 101 kPa, x1 = 0.01087	0.7009 mPa·s and 0.7009 mPa·s
318.15 K, 101 kPa, x1 = 0.0124	0.7145 mPa·s and 0.7145 mPa·s
318.15 K, 101 kPa, x1 = 0.01417	0.7345 mPa·s and 0.7345 mPa·s
323.15 K, 101 kPa, x1 = 0.005374	0.5833 mPa·s
323.15 K, 101 kPa, x1 = 0.008931	0.6095 mPa·s
323.15 K, 101 kPa, x1 = 0.01069	0.6229 mPa·s
323.15 K, 101 kPa, x1 = 0.01245	0.6364 mPa·s

CCC(C)c1ccccc1 (stereo not drawn) + CCCCCCCCCCCC
viscosity [mPa·s], 102 kPa
Details	x1 = 0.1008	x1 = 0.2007	x1 = 0.2993	x1 = 0.4003	x1 = 0.4998	x1 = 0.62	x1 = 0.6996	x1 = 0.7999	x1 = 0.9004
293.15 K	1.41	1.33	1.26	1.19	1.131	1.064	1.027	0.992	0.959
303.15 K	1.19	1.128	1.072	1.02	0.971	0.923	0.896	0.862	0.835
313.15 K	1.015	0.973	0.935	0.893	0.853	0.812	0.784	0.755	0.732
323.15 K	0.888	0.852	0.817	0.783	0.751	0.717	0.694	0.669	0.649
